Source: patent US20250270227A1, “CAMPTOTHECIN DERIVATIVE, AND PHARMACEUTICAL COMPOSITION AND USE THEREOF” (SIMCERE ZAIMING PHARMACEUTICAL CO., LTD., priority 2021, published 2025)
Where two headings read alike, the source gives them in different places.

Legend:
Experiment in all cases: Test 2 of anti-proliferative activity against tumor cells (Cell-Titer Glo)
Type in all cases: cell-based
[1] = system: human ovarian cancer cell line PA-1
Procedure: (§1) Cell culture: SK-OV-3 cells were cultured in McCoy's 5a medium containing 10% fetal bovine serum+1% penicillin-streptomycin, PA-1 cells were cultured in MEM medium containing 10% fetal bovine serum+1% MEM NEAA+1% sodium pyruvate+1% penicillin-streptomycin, NCI-H82 cells and MDA-MB-231 cells were cultured in 1640 medium containing 10% fetal bovine serum+1% penicillin-streptomycin, A549 cells were cultured in DMEM medium containing 10% fetal bovine serum+1% penicillin-streptomycin, all under conditions of 37° C. and 5% CO2. Cells in logarithmic growth phase were suitable for the experiment.
(§2) Detection of cell proliferation activity: The inhibitory activity of the compounds on the proliferation of the five cell lines SK-OV-3, PA-1, NCI-H82, MDA-MB-231 and A549 was detected using Cell-Titer Glo reagent. SK-OV-3 cell (1000 cells per well), PA-1 cells (800 cells per well), NCI-H82 cells (5000 cells per well), MDA-MB-231 cells (3000 cells per well) and A549 cells (400 cells per well) were seeded in 96-well plates and cultured at 37° C. and 5% CO2 for 24 h. The compound to be tested was dissolved in DMSO to a concentration of 1 mM, then subjected to gradient dilution with DMSO and corresponding medium, and transferred to 96-well cell plates to a final concentration of 300 nM (initial concentration), with 3-fold dilution and a total of 9 concentration points. The cells were cultured at 37° C. and 5% CO2 for additional 5 days. The cell viability was detected by adding Cell-Titer Glo reagent.
(§3) Additionally, a negative control group and a positive control group were provided as Bottom and Top, respectively. In the negative control group, the cells were not added, only the same volume of medium was added, and other operations were consistent with those in the experimental group; in the positive control group, the test compound was not added, only the same volume of DMSO was added, and other operations were consistent with those in the experimental group.
(§4) Data analysis: The % compound inhibition was calculated, and fitting was performed to obtain IC50 of the compound.
(§5) % Compound inhibition=1−100%*(Signal−Bottom)/(Top−Bottom).
(§6) Signal represents the signal value of the experimental group, Bottom represents the average signal value of the negative control group, and Top represents the average signal value of the positive control group.

[2] = system: human non-small cell lung cancer cell line A549
Procedure: as §1, §2, §3, §4, §5, §6

[3] = system: human breast cancer cell line MDA-MB-231; conditions: Homo sapiens, MDA-MB-231, 120 h
Procedure: as §1, §2, §3, §4, §5, §6

[4] = system: Human ovarian cancer cell line SK-OV-3
Procedure: as §1, §2, §3, §4, §5, §6

[5] = system: human small cell lung cancer cell line NCI-H82; conditions: NCI-H82 cells, 5 days, Cell-Titer Glo, read-out: NCI-H82 Anti-proliferative activity IC50
Procedure: as §1, §2, §3, §4, §5, §6

[6] = Homo sapiens, PA-1, 120 h, read-out: PA-1 Anti-proliferative activity IC50 (nM), PA-1 cells, 5 days, Cell-Titer Glo
[7] = Homo sapiens, A549, 120 h, read-out: A549 Anti-proliferative activity IC50 (nM), A549 cells, 5 days, Cell-Titer Glo
[8] = read-out: MDA-MB-231 Anti-proliferative activity IC50 (nM)
[9] = Homo sapiens, SK-OV-3, 120 h, read-out: SK-OV-3 Anti-proliferative activity IC50 (nM)
[10] = Homo sapiens, PA-1, 120 h, PA-1 cells, 5 days, Cell-Titer Glo, read-out: PA-1 Anti-proliferative activity IC50
[11] = MDA-MB-231 cells, 5 days, Cell-Titer Glo, read-out: MDA-MB-231 Anti-proliferative activity IC50
[12] = Homo sapiens, SK-OV-3, 120 h, SK-OV-3 cells, 5 days, Cell-Titer Glo, read-out: SK-OV-3 Anti-proliferative activity IC50

| SMILES | IC50 [1, 6] [nM] | IC50 [2, 7] [nM] | IC50 [3, 8] [nM] | IC50 [4, 9] [nM] | IC50 [1, 10] [nM] | IC50 [3, 11] [nM] | IC50 ([5]; Homo sapiens, 120 h) [nM] | IC50 ([1]; read-out: PA-1 Anti-proliferative activity IC50, PA-1 cells, 5 days, Cell-Titer Glo) [nM] | IC50 ([2]; read-out: A549 Anti-proliferative activity IC50, A549 cells, 5 days, Cell-Titer Glo) [nM] | IC50 ([4]; SK-OV-3 cells, 5 days, Cell-Titer Glo, read-out: SK-OV-3 Anti-proliferative activity IC50) [nM] | IC50 [5] [nM] | IC50 ([2]; Homo sapiens, A549, 120 h, A549 cells, 5 days, Cell-Titer Glo, read-out: A549 Anti-proliferative activity IC50) [nM] | IC50 [4, 12] [nM] |
| --- | --- | --- | --- | --- | --- | --- | --- | --- | --- | --- | --- | --- | --- |
| [2H]C1([2H])Oc2cc3nc4c(c(CNC(=O)C(O)C5CC5)c3cc2O1)Cn1c-4cc2c(c1=O)COC(=O)[C@]2(O)CC (stereo partly drawn) [Compound 39, 2-cyclopropyl-N-(((S)-7-ethyl-7-hydroxy-8,11-dioxo-7,8,11,13-tetrahydro-10H-[1,3]dioxolo[4,5-g]pyrano[3′,4′:6,7]indolizino[1,2-b]quinolin-14-yl-2,2-d2)methyl)-2-hydroxyacetamide] | 1.5 | 19.1 | 26.4 | 2.6 | – | – | – | – | – | – | – | – | – |
| CC[C@@]1(O)C(=O)OCc2c1cc1n(c2=O)Cc2c-1nc1cc3c(cc1c2CNC(=O)C(O)C1CC1)OCO3 (stereo partly drawn) [Compound 14, 2-cyclopropyl-N-(((S)-7-ethyl-7-hydroxy-8,11-dioxo-7,8,11,13-tetrahydro-10H-[1,3]dioxolo[4,5-g]pyrano[3′,4′:6,7]indolizino[1,2-b]quinolin-14-yl)methyl)-2-hydroxyacetamide] | – | 9.7 | – | 3 | 1 | 10.4 | 3.9 | – | – | – | – | – | – |
| CC[C@@]1(O)C(=O)OCc2c1cc1n(c2=O)Cc2c-1nc1cc3c(cc1c2CNC(=O)C(O)C1CC1)OCO3 (single isomer, unassigned) [Compound 14-P2] | – | – | – | – | – | 8.8 | – | 0.9 | 14.3 | 3.2 | 4.7 | – | – |
| CC[C@@]1(O)C(=O)OCc2c1cc1n(c2=O)Cc2c-1nc1cc3c(c(F)c1c2CNC(=O)[C@@H](O)C1CC1)OCO3 (single isomer, unassigned) [Compound 37-P1] | – | – | – | – | 0.9 | 13.2 | – | – | – | – | – | 9.1 | 2.1 |
| CC[C@@]1(O)C(=O)OCc2c1cc1n(c2=O)Cc2c-1nc1cc3c(cc1c2CNC(=O)C(O)C1CC1)OCO3 (single isomer, unassigned) [Compound 14-P1] | 0.7 | 10.2 | 7.5 | – | – | – | – | – | – | – | 2.2 | – | 2.2 |
